Experimental data taken from US12187754B2, “LpxC inhibitors and uses thereof” (Blacksmith Medicines, Inc., priority 2021, dated 2025).

How the values were obtained:
E. coli UTI 89 = test: Mouse urinary tract infection model, E. coli UTI 89; type: in vivo; settings: for Bladder Terminal Burden / Kidney Terminal Burden / Urine Terminal Burden: mice, 96 h post infection; for bacterial burden in urine relative to vehicle-treated controls / bacterial burden in bladder relative to vehicle-treated controls / bacterial burden in kidney relative to vehicle-treated control / efficacy on bacterial burden in kidney: E. coli UTI 89, mice; for bacterial burden in bladder relative to vehicle-treated controls / bacterial burden in kidney relative to vehicle-treated control: IV administration; for efficacy on bacterial burden in kidney: PO administration
Method: (§1) Compound A and its prodrugs as disclosed herein were tested in an in vivo mouse model for Urinary Tract Infection. Briefly, mice were infected with E. coli UTI 89 to cause a UTI infection and were treated with compounds disclosed herein.
(§2) Five days prior to infection, C3H/HeNR female mice were preconditioned with drinking water containing 5% glucose. Mice were rendered unconscious using parenteral anaesthesia (ketamine/medetomidine) then 0.05 mL of a bacterial suspension of E. coli UTI 89 (1.2×10^9 CFU/mL (6.2×10^7 CFU/mouse) was administered transurethrally into the bladder to cause an ascending UTI infection.
IV or PO treatment was started 24 h post infection with 3, 10, 15 mg/kg/dose IV Compound A; 3, 10, 15.30 mg/kg/dose IV Compound 1; 3, and 10 mg/kg/dose IV Compound 2; and 30 mg/kg/dose oral of either Compound 1 or 2 administered every 12 hours for 3 days (six doses total). Ciprofloxacin was given as a control at 10 mg/kg/dose IV every 12 hours. Compound A was formulated in 10% DMSO, 5% Cremophor, 85% SFI; the remaining compounds used a sterile phosphate-buffered saline (PBS) formulation. Each group was comprised of five mice each.
(§3) Urine, bladder, and kidney were harvested at 24 h (pre-treatment group only) and 96 h post infection and quantitatively cultured.

K. pneumoniae BAA-1705 = test: Mouse urinary tract infection model, K. pneumoniae BAA-1705; type: in vivo; settings: for Bladder Terminal Burden / Kidney Terminal Burden / Urine Terminal Burden: mice, 96 hours; for bacterial burden in urine relative to vehicle-treated controls and the ciprofloxacin control: except for the 30 mg/kg IV Compound A experiment
Method: as §1, §2
[…]; […]; […]; […] for 3 days (six doses total). Ciprofloxacin was given as a control at 10 mg/kg/dose IV every 12 hours. Compound A was formulated in 10% DMSO, 5% Cremophor, 85% SFI; the remaining compounds used a sterile phosphate-buffered saline (PBS) formulation. Each group was comprised of five mice each.
as §3
The experiment was repeated using K. pneumoniae BAA-1705 (MDR; MIC90 strain). Table 5 and FIG. 2 summarize the results, showing the average terminal burden of K. pneumoniae BAA-1705 in urine, bladder, and kidney at the conclusion of the study (96 hours).

Pharmacokinetics in dogs = type: in vivo; settings: beagle, plasma, intravenous, oral; after 6 h, all routes and doses tested in dog; read-out: plasma concentration of prodrug Compound 1
Method: (§4) Stock solutions of test compounds were prepared at 2.5 or 5.0 mg/mL in 10 mM PBS. Male Sprague-Dawley (SD) rats (n=3 per group) or beagle dogs (n=3 per group) were administered test compound by either IV or oral administration. For IV-administered compounds, a three hour infusion was used. For PO-administered compounds, a single bolus dose was used.
(§5) After initiation of IV dosing (or after PO bolus dosing), whole blood samples were collected at 1, 3, 3.5, 4, 6, 8, and 24 hour timepoints. All samples were collected into Plasma K2-EDTA collection tubes and processed to separate plasma from red blood cells.
(§6) Liquid chromatography-tandem mass spectrometry (LC-MS/MS) was used to analyze all plasma samples, with both the test compound and the active agent Compound A being quantified. The lower limit of quantitation (LLOQ) for both rats and dogs was 1 ng/mL.

Pharmacokinetics in rats = type: in vivo, Male Sprague-Dawley (SD) rats; settings: male, Sprague-Dawley, plasma, intravenous, oral; after 4 h, all routes and doses tested in rat; read-out: plasma concentration of prodrug Compound 1
Method: as §4, §5, §6

Kinetic solubility = type: physicochemical
Method: Solubility of the compounds was assessed in 10 mM phosphate-buffered saline (PBS) at pH 7 at final concentrations of 20, 40, and 50 mg/mL of test compound.

Thermal solubility = type: physicochemical; settings: aqueous buffer, thermodynamic from solid; 100 mM potassium phosphate buffer pH 7.4, 24 h, 25° C.
Method: Solubility of the compounds was assessed in 100 mM potassium phosphate buffer at pH 7.4 after 24 hours at room temperature.
Accurately weighed K2HPO4 (2.79 g) and KH2PO4 (0.54 g) were dissolved in 90 mL of Milli-Q water and mixed well. Volume was made upto 200 mL with Milli-Q water and mixed well. The prepared phosphate buffer was stored at 2-8° C. and used within a month.
Approximately 30 mg of test compound was added to approximately 1 mL of the potassium phosphate buffer, pH 7.4. If the visual inspection indicated precipitation, no further compound is added. If the visual inspection indicated a clear solution, further increments of compound were added until the solution was no longer clear.
Test compounds and assay controls (caffeine) were further incubated for 24 h at 25° C. temperature on a thermomixer at a shaking speed of 1200 rpm. After incubation, the samples (200 μL) were transferred to a filtration plate to which a plate was attached at bottom for collecting the filtrate. The plate was centrifuged at 4000 rpm for 2 min and the filtrate was collected in the attached bottom plate. The filtrates were diluted using filtered buffer based on the initial amount of compound added. All samples were analysed by HPLC-UV method against 8 point calibration curve with concentrations ranging from 2.5 μg/mL to 1000 μg/mL.

[1] = 10 mg/kg/dose IV every 12 hours for 3 days
[2] = 3 mg/kg/dose IV every 12 hours for 3 days
[3] = 15 mg/kg/dose IV every 12 hours for 3 days
[4] = 30 mg/kg/dose PO every 12 hours for 3 days
[5] = 20, 40, and 50 mg/mL in 10 mM PBS pH 7

SMILES	Bladder Terminal Burden (E. coli UTI 89; [1])	Kidney Terminal Burden (E. coli UTI 89; [1])	Urine Terminal Burden (E. coli UTI 89; [1])	Bladder Terminal Burden (E. coli UTI 89; [2])	Kidney Terminal Burden (E. coli UTI 89; [2])	Urine Terminal Burden (E. coli UTI 89; [2])	Bladder Terminal Burden (E. coli UTI 89; [4])	Kidney Terminal Burden (E. coli UTI 89; [4])	Urine Terminal Burden (E. coli UTI 89; [4])	bacterial burden in urine relative to vehicle-treated controls (E. coli UTI 89)	bacterial burden in bladder relative to vehicle-treated controls (E. coli UTI 89)	bacterial burden in kidney relative to vehicle-treated control (E. coli UTI 89)	efficacy on bacterial burden in kidney (E. coli UTI 89)	bacterial burden in kidney relative to vehicle-treated controls and the ciprofloxacin control (K. pneumoniae BAA-1705; K. pneumoniae BAA-1705, mice)	bacterial burden in urine relative to vehicle-treated controls and the ciprofloxacin control (K. pneumoniae BAA-1705; K. pneumoniae BAA-1705, mice)	appearance after vortex mixing (Kinetic solubility; [5])	solubility at 24 h (Thermal solubility)	also measured
O=C(O)c1cn(C2CC2)c2cc(N3CCNCC3)c(F)cc2c1=O [Ciprofloxacin, reference compound]	2.85 × 10^5 CFU/mL	1.88 × 10^2 CFU/mL	5.07 × 10^2 CFU/mL															Bladder Terminal Burden (K. pneumoniae BAA-1705; 10 mg/kg/dose IV): 2.27 × 10^1 CFU/mL; Kidney Terminal Burden (K. pneumoniae BAA-1705; 10 mg/kg/dose IV): 1.88 × 10^3 CFU/mL; Urine Terminal Burden (K. pneumoniae BAA-1705; 10 mg/kg/dose IV): 1.78 × 10^2 CFU/mL; Bladder Terminal Burden (K. pneumoniae BAA-1705; 10 mg/kg/dose PO): 4.05 × 10^2 CFU/mL; Kidney Terminal Burden (K. pneumoniae BAA-1705; 10 mg/kg/dose PO): 2.59 × 10^4 CFU/mL; Urine Terminal Burden (K. pneumoniae BAA-1705; 10 mg/kg/dose PO): 9.71 × 10^2 CFU/mL
N#CC1CN(C[C@@H](Cc2nc[nH]c(=O)c2OP(=O)(O)O)c2ccc(C#Cc3ccc(CN4CCOCC4)cc3)cc2)C1 [Compound 1, (S)-4-(3-(3-cyanoazetidin-1-yl)-2-(4-((4-(morpholinomethyl)phenyl)ethynyl)phenyl)propyl)-6-oxo-1,6-dihydropyrimidin-5-yl dihydrogen phosphate]	5.05 × 10^5 CFU/mL	5.24 × 10^2 CFU/mL	9.40 × 10^3 CFU/mL	2.64 × 10^6 CFU/mL	4.74 × 10^4 CFU/mL	2.93 × 10^5 CFU/mL	1.81 × 10^5 CFU/mL	4.04 × 10^2 CFU/mL	8.73 × 10^3 CFU/mL	statistically significant reductions in bacterial burden in urine	reductions in bacterial burden in bladder	statistically significant reductions in bacterial burden in kidney	efficacious	statistically significant reductions in bacterial burden in kidney	statistically significant reductions in bacterial burden in urine	clear solutions	≥ 3000 µg/mL	concentration at 6 h (Pharmacokinetics in dogs): < 100 ng/mL; Bladder Terminal Burden (E. coli UTI 89; [3]): 9.57 × 10^4 CFU/mL; Kidney Terminal Burden (E. coli UTI 89; [3]): 1.28 × 10^2 CFU/mL; Urine Terminal Burden (E. coli UTI 89; [3]): 3.59 × 10^3 CFU/mL; concentration at 4 h (Pharmacokinetics in rats): < 100 ng/mL; Bladder Terminal Burden (K. pneumoniae BAA-1705; 11.5 mg/kg/dose IV): BLoD; Kidney Terminal Burden (K. pneumoniae BAA-1705; 11.5 mg/kg/dose IV): 1.72 × 10^1 CFU/mL; Urine Terminal Burden (K. pneumoniae BAA-1705; 11.5 mg/kg/dose IV): 2.15 × 10^1 CFU/mL; Bladder Terminal Burden (K. pneumoniae BAA-1705; 35 mg/kg/dose IV): BLoD; Kidney Terminal Burden (K. pneumoniae BAA-1705; 35 mg/kg/dose IV): BLoD; Urine Terminal Burden (K. pneumoniae BAA-1705; 35 mg/kg/dose IV): BLoD; Bladder Terminal Burden (K. pneumoniae BAA-1705; 69.5 mg/kg/dose IV): 4.58 × 10^0 CFU/mL; Kidney Terminal Burden (K. pneumoniae BAA-1705; 69.5 mg/kg/dose IV): BLoD; Urine Terminal Burden (K. pneumoniae BAA-1705; 69.5 mg/kg/dose IV): BLoD; Bladder Terminal Burden (K. pneumoniae BAA-1705; 104.5 mg/kg/dose PO): BLoD; Kidney Terminal Burden (K. pneumoniae BAA-1705; 104.5 mg/kg/dose PO): BLoD; Urine Terminal Burden (K. pneumoniae BAA-1705; 104.5 mg/kg/dose PO): 2.51 × 10^0 CFU/mL; bacterial loads in kidney (K. pneumoniae BAA-1705; K. pneumoniae BAA-1705, mice, all routes of administration): below the limit of detection; solubility after storage (Kinetic solubility; 20, 40, and 50 mg/mL in 10 mM PBS pH 7, storage at 4° C. for 20 hours): remained soluble
N#CC1CN(C[C@@H](Cc2nc[nH]c(=O)c2OCOP(=O)(O)O)c2ccc(C#Cc3ccc(CN4CCOCC4)cc3)cc2)C1 [Compound 2, (S)-((4-(3-(3-cyanoazetidin-1-yl)-2-(4-((4-(morpholinomethyl)phenyl)ethynyl)phenyl)propyl)-6-oxo-1,6-dihydropyrimidin-5-yl)oxy)methyl dihydrogen phosphate]	1.17 × 10^6 CFU/mL	9.67 × 10^2 CFU/mL	2.73 × 10^4 CFU/mL	5.15 × 10^5 CFU/mL	2.52 × 10^3 CFU/mL	4.69 × 10^4 CFU/mL	2.82 × 10^5 CFU/mL	3.81 × 10^2 CFU/mL	3.41 × 10^3 CFU/mL	statistically significant reductions in bacterial burden in urine	reductions in bacterial burden in bladder	statistically significant reductions in bacterial burden in kidney	efficacious	statistically significant reductions in bacterial burden in kidney	statistically significant reductions in bacterial burden in urine	milky suspensions	≥ 3000 µg/mL	appearance after sonication (Kinetic solubility; 20, 40, and 50 mg/mL in 10 mM PBS, sonication in 40° C. water bath for 30 min): no change in appearance; appearance after treatment with 1M HCL (Kinetic solubility; 20, 40, and 50 mg/mL, final pH of 4, 10 seconds of vortexing): Clear solutions; appearance after addition of 1M NaOH (Kinetic solubility; 20, 40, and 50 mg/mL, final pH of 7, 10 seconds of vortexing): clear solutions
